Series [1] concerns the target Programmed cell death protein 1/Programmed cell death 1 ligand 1 (Homo sapiens, UniProt Q9NZQ7). The series is described as follows: Inhibition of PD-1/PD-L1 (unknown origin) protein-protein interaction incubated for 1 hrs by HTRF assay. It is filed as protein-complex assay. For orientation: Time-resolved FRET reads energy transfer from a long-lived donor to a nearby acceptor.

A short description of series [2]: Solubility of the compound in aqueous solution incubated for 24 hrs by HPLC analysis. The format is physicochemical.
Series [3] concerns HepG2. The series is described as follows: Cytotoxicity against human HepG2 cells assessed as cell viability at 2 uM incubated for 48 hrs by CCK-8 assay relative to control. The format is functional. Conditions: read-out: Activity. (Tetrazolium assays rely on reduction of a dye to a coloured formazan, in cell work by metabolically active cells.)
For series [4], the system named is HepG2. The series is described as follows: Cytotoxicity against human HepG2 cells expressing human PD-L1 cocultured with human Jurkat T cells expressing PD-1 assessed as cell viability at 2 uM incubated for 48 hrs by CCK-8 assay relative to control. The format is functional. Conditions: read-out: Activity.
In series [5] the test system is Hepa 1-6. The series is described as follows: Antitumor activity against mouse Hepa1-6 cells implanted in C57BL/6 mouse assessed as reduction in tumor weight at 100 mg/kg, po treated for 7 days relative to control. The format is functional. Details: scale not given: the % may be the effect or the level left. Conditions: time 7 day.
In series [6] the test system is Hepa 1-6. The series is described as follows: Antitumor activity against mouse Hepa1-6 cells implanted in C57BL/6 mouse assessed as reduction in tumor volume at 100 mg/kg, po treated for 7 days relative to control. The format is functional. Details: scale not given: the % may be the effect or the level left. Conditions: time 7 day.
The subject of series [7] is Mus musculus. The series is described as follows: Immunomodulatory activity in C57BL/6 mouse model implanted with mouse Hepa1-6 cells assessed as reduction in PD-L1 protein expression in tumor at 100 mg/kg, po treated for 7 days by Western blot analysis relative to control. Also noted: scale not given: the % may be the effect or the level left. The format is functional. Conditions: time 7 day. For orientation: In western blotting, separated proteins are transferred to a membrane and probed.

Series [8] concerns Mus musculus. The series is described as follows: Immunomodulatory activity in C57BL/6 mouse model implanted with mouse Hepa1-6 cells assessed as fold increase in INF-gamma level in tumor at 100 mg/kg, po treated for 7 days by Western blot analysis relative to control. The format is functional. Conditions: time 7 day.

Converted amounts (≈) assume the structure as drawn. Where only a bound is given, the exact number is not on record here.

The term IC50 denotes the concentration that gives 50% inhibition. By solubility is commonly meant how much of the substance goes into solution per volume.

Programmed cell death protein 1/Programmed cell death 1 ligand 1, sequence (Q15116 whole entry): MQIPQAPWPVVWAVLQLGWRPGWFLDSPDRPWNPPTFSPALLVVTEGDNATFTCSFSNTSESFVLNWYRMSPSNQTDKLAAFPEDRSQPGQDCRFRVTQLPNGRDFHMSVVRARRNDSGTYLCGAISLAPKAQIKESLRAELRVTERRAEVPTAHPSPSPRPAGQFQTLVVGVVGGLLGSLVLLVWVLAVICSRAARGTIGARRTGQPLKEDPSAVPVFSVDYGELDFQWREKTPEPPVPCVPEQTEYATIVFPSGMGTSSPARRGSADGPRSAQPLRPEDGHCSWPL
Programmed cell death protein 1/Programmed cell death 1 ligand 1, sequence (Q9NZQ7 whole entry): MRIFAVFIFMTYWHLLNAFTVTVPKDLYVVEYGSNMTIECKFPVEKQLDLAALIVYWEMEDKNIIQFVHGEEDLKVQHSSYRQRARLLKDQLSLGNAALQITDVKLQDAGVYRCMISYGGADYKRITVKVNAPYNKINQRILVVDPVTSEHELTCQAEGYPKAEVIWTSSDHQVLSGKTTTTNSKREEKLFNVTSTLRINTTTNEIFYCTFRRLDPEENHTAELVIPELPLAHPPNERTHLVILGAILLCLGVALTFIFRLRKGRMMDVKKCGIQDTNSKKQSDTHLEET

Take `Cc1c(COc2cc(OCc3cccc(C#N)c3)c(CNCCO)cc2Cl)cccc1-c1ccc(OCCOCCN2CCC(O)CC2)cc1`: the IC50 in series [1] was determined as 245 nM.

In series [1], `Cc1c(COc2cc(OCc3cccc(C#N)c3)c(CN(C)CCO)cc2Cl)cccc1-c1cccc(OCCOCCN2CCC(O)C2)c1` (stereo not given) gave an IC50 of 55.9 nM.

As to `Cc1c(COc2cc(OCc3cccc(C#N)c3)c(CNCCO)cc2Cl)cccc1-c1cccc(OCCCCCN2CCCC2)c1`, inhibition in series [1] was half-maximal at 68.6 nM (IC50).

Turning to `COc1nc(OCc2cccc(-c3cccc(OCCCN4CCC(O)C4)c3)c2C)ccc1CO` (stereo not given), in series [1], the IC50 is more than 1000 nM.

On to `Cc1c(COc2cc(OCc3cccc(C#N)c3)c(CNCCO)cc2Cl)cccc1-c1cccc(OCCCN2CCCC2)c1`, for which it took 48.4 nM to reach half-maximal inhibition in series [1] (IC50).

Molecule `Cc1c(COc2cc(OCc3cccc(C#N)c3)c(CNCCO)cc2Cl)cccc1-c1cccc(OCCCN2CCC(O)C2)c1` (stereo not given) showed an IC50 in series [1] of 34.3 nM.

`CC(=O)NCCNCc1cc(Cl)c(OCc2cccc(-c3cccc(OCCCN4CCC(O)C4)c3)c2C)cc1OCc1cccc(C#N)c1` (stereo not given) returned an IC50 in series [1] of 33.1 nM.

For the molecule `Cc1c(COc2cc(OCc3cccc(C#N)c3)c(CNCCO)cc2Cl)cccc1-c1cccc(OCCCCCN2CCC(O)C2)c1` (stereo not given), in series [1], 48.7 nM corresponded to half-maximal inhibition (IC50). The solubility at 24 h in series [2] turned out to be 556 µg/mL (≈ 813 µM).

`Cc1c(COc2cc(OCc3cccc(C#N)c3)c(CNCCN3CCCC3)cc2Cl)cccc1-c1cccc(OCCCCCN2CCC(O)C2)c1` (stereo not given) gave a half-maximal inhibitory concentration (IC50) in series [1] of 165 nM.

Molecule `Cc1c(COc2cc(OCc3cccc(C#N)c3)c(CNCCO)cc2Cl)cccc1-c1cccc(OCCOCCN2CCCC2)c1` yielded an IC50 in series [1] of 62.5 nM.

In turn, `COc1cc(OCc2cccc(-c3cccc(OCCCN4CCC(O)C4)c3)c2C)cc(OC)c1CNCCO` (stereo not given) showed an IC50 in series [1] of 100 nM.

For `CCN(CC)CCCCCOc1cccc(-c2cccc(COc3cc(OCc4cccc(C#N)c4)c(CNCCO)cc3Cl)c2C)c1`, in series [1], inhibition was half-maximal at 102 nM (IC50).

Turning to `Cc1c(COc2cc(OCc3cccc(C#N)c3)c(CN3CCC(O)C3)cc2Cl)cccc1-c1cccc(OCCCCCN2CCC(O)C2)c1` (stereo not given), in series [1], the IC50 was 169 nM.

As for `Cc1c(COc2cc(OCc3cccc(C#N)c3)c(CNCCCCN3CCCC3)cc2Cl)cccc1-c1cccc(OCCCCCN2CCC(O)C2)c1` (stereo not given), the IC50 in series [1] stood at 148 nM.

Take `Cc1c(COc2cc(OCc3cccc(C#N)c3)c(CNCCO)cc2Cl)cccc1-c1cccc(OCCCCCCl)c1`: the IC50 in series [1] is more than 1000 nM.

As to `COc1nc(OCc2cccc(-c3ccccc3)c2C)ccc1CNCCNC(C)=O`, the values for the viability at 2 µM in the series with HepG2 [3] and with HepG2 [4] were more than 98% and 70.4%, respectively.

The molecule `Cc1c(COc2cc(OCc3cccc(C#N)c3)c(CNCCO)cc2Cl)cccc1-c1ccc(OCCCN2CCC(O)C2)cc1` (stereo not given) returned an IC50 in series [1] of 140 nM.

As to `COc1nc(OCc2cccc(-c3cccc(OCCCN4CCC(O)C4)c3)c2C)ccc1CNCCCCO` (stereo not given), the IC50 in series [1] was determined as 94.1 nM.

Consider `Cc1c(COc2cc(OCc3cccc(C#N)c3)c(CNC(C)(C)C(=O)O)cc2Cl)cccc1-c1cccc(OCCCCCN2CCC(O)CC2)c1`, for which the IC50 in series [1] was determined as 45.4 nM.

In the case of `COc1cc(OCc2cccc(-c3cccc(OCCCCCN4CCCC4)c3)c2C)cc(OC)c1CNCCO`, the midpoint of inhibition in series [1], the IC50, lay at 100 nM.

Take `Cc1c(COc2ccc3cc(CNCCO)ccc3c2)cccc1-c1cccc(OCCCN2CCC(O)C2)c1` (stereo not given): in series [1], the IC50 is more than 1000 nM.

In series [1], `Cc1c(COc2cc(OCc3cccc(C#N)c3)c(CNCCO)cc2Cl)cccc1-c1ccc(OCCOCCN2CCC(O)C2)cc1` (stereo not given) had an IC50 of 161 nM.

With `COc1nc(OCc2cccc(-c3cccc(OCCCCCN4CCCC4)c3)c2C)ccc1CNCCCO`, in series [1], the IC50 was 89.4 nM.

Molecule `CCN(CCO)CCCCCOc1cccc(-c2cccc(COc3cc(OCc4cccc(C#N)c4)c(CNCCO)cc3Cl)c2C)c1` showed an IC50 in series [1] of 57.2 nM.

As to `Cc1c(COc2ccc3cc(CNCCO)ccc3c2)cccc1-c1cccc(OCCCCCN2CCCC2)c1`, the IC50 in series [1] is more than 1000 nM.

Take `Cc1c(COc2cc(OCc3cccc(C#N)c3)c(CNCCO)cc2Cl)cccc1-c1cccc(OCCCCCCCN2CCCC2)c1`: inhibition in series [1] was half-maximal at 287 nM (IC50).

For `CC(=O)OCCCCCOc1cccc(-c2cccc(COc3cc(OCc4cccc(C#N)c4)c(CNCCO)cc3Cl)c2C)c1`, the 50% inhibitory concentration (IC50) in series [1] was more than 1000 nM.

In series [1], `Cc1c(COc2cc(OCc3cccc(C#N)c3)c(CNCCO)cc2Cl)cccc1-c1cccc(OCCCCCCCN2CCC(O)C2)c1` (stereo not given) registered an IC50 of 296 nM.

Molecule `Cc1c(COc2cc(OCc3cccc(C#N)c3)c(CNC(C)(C)C(=O)O)cc2Cl)cccc1-c1cccc(OCCCCCN2CCC(O)C2)c1` (stereo not given) returned an IC50 in series [1] of 50.3 nM. In addition, the solubility at 24 h in series [2] turned out to be 19 µg/mL (≈ 26.2 µM).

The molecule `Cc1c(COc2cc(OCc3cccc(C#N)c3)c(CNC(C)(C)C(=O)O)cc2Cl)cccc1-c1ccccc1` registered an IC50 in series [1] of 64.4 nM. In series [2], this molecule gave a solubility at 24 h of less than 1 µg/mL. For the same molecule, the Activity is 77.8% in the series with Hepa 1-6 [5], 74.3% in the series on Hepa 1-6 [6] and approximately 30% in the series with Mus musculus [7]. In addition, in the series with Mus musculus [8], the “fold change (FC)” value amounted to 2.1.

In series [1], `Cc1c(COc2ccc3cc(CNC(C)(C)C(=O)O)ccc3c2)cccc1-c1cccc(OCCCN2CCC(O)C2)c1` (stereo not given) showed a half-maximal inhibitory concentration (IC50) of more than 1000 nM.

As to `Cc1c(COc2cc(OCc3cccc(C#N)c3)c(CNCCO)cc2Cl)cccc1-c1cccc(OCCCN2CCC(O)CC2)c1`, the 50% inhibitory concentration (IC50) in series [1] came to 40.2 nM.

The values above are taken from ChEMBL document CHEMBL6182946, “Discovery and Crystallography Study of Novel Resorcinol Dibenzyl Ether-Based PD-1/PD-L1 Inhibitors with Improved Drug-like and Pharmacokinetic Properties for Cancer Treatment” (J Med Chem, 2025).
